Each molecule was assayed against DGKα (Homo sapiens (Human), UniProt P23743) (assay: Human DGKα kinase activity inhibition assay (ADP-Glo)). Conditions: recombinant full-length human DGKα, 55 μM ATP, 7 μM 1,2-dioleoyl-sn-glycerol, read-out: IC50 values of examples in in vitro human DGKa kinase activity inhibition assays.
Format: biochemical
Summary of the method: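 Recombinant full-length human DGKα (C-terminal FLAG, from insect cells) phosphorylated 1,2-dioleoyl-sn-glycerol presented in octyl-glucopyranoside micelles. ADP formed was quantified by ADP-Glo luminescence. Compounds were added from 100-fold DMSO stocks.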

Chain of DGKα (P23743 other isoform, or with tags, fused parts or gaps): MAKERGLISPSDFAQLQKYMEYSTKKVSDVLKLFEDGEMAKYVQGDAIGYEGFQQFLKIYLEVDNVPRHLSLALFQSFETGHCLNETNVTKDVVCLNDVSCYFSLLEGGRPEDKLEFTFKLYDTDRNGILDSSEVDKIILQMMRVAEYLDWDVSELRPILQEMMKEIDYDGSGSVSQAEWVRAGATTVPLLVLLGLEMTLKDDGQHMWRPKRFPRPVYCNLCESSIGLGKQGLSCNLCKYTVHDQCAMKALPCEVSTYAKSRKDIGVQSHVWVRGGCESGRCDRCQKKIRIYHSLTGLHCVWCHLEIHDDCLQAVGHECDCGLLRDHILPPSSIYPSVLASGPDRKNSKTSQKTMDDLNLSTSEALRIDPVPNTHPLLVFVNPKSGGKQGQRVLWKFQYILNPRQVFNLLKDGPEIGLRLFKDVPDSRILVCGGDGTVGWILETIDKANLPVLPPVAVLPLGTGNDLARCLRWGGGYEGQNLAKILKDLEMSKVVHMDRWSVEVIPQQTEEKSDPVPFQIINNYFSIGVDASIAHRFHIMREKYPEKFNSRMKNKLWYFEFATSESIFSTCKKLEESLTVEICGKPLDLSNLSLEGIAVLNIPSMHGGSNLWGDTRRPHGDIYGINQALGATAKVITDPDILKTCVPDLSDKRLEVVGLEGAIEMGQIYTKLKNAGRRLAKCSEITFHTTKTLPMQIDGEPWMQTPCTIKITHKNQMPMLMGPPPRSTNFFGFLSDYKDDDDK

Which IC50 does the source give for COc1ccc(C2CCN(c3c(C#N)c(=O)n(C)c4c(F)cccc34)CC2)cc1 [Example 153, 8-fluoro-4-[4-(4-methoxyphenyl)piperidin-1-yl]-1-methyl-2-oxo-1,2-dihydroquinoline-3-carbonitrile] here?
The IC50 was 45 nM.

With COc1ccc(C2CCN(c3c(C(N)=O)c(=O)n(C)c4ccccc34)CC2)cc1 [Example 112, 4-[4-(4-methoxyphenyl)piperidin-1-yl]-1-methyl-2-oxo-1,2-dihydroquinoline-3-carboxamide] as the molecule, how does the IC50 read?
The IC50 was 4.5 nM.

For CN(C)c1ccc(C2CCN(c3c(C#N)c(=O)n(C)c4ccccc34)CC2)cc1 [Example 46, 4-{4-[4-(dimethylamino)phenyl]piperidin-1-yl}-1-methyl-2-oxo-1,2-dihydroquinoline-3-carbonitrile], which IC50 is on record?
The IC50 was 2.5 nM.

Which IC50 does the source give for Cn1c(=O)c(C#N)c(N2CCC(c3nc4cc(F)c(F)cc4o3)CC2)c2cccc(Br)c21 [Example 160, 8-bromo-4-[4-(5,6-difluoro-1,3-benzoxazol-2-yl)piperidin-1-yl]-1-methyl-2-oxo-1,2-dihydroquinoline-3-carbonitrile] here?
The IC50 was 544 nM.

Which IC50 does the source give for Cn1c(=O)c(C#N)c(N2CCC(c3cccc(C#N)c3)CC2)c2ccccc21 [Example 327, 4-[4-(3-cyanophenyl)piperidin-1-yl]-1-methyl-2-oxo-1,2-dihydroquinoline-3-carbonitrile] here?
The IC50 was 85 nM.

How did the IC50 turn out when Cc1nc2ccc(C3CCN(c4c(C#N)c(=O)n(C)c5ccccc45)CC3)cc2o1 [Example 376, 1-methyl-4-[4-(2-methyl-1,3-benzoxazol-6-yl)piperidin-1-yl]-2-oxo-1,2-dihydroquinoline-3-carbonitrile] was run?
Its IC50 is 14 nM.

How did the IC50 turn out when COc1cc2c(cc1C)c(N1CCC(c3nc4cc(C)ccc4o3)CC1)c(C#N)c(=O)n2C [Example 419, 7-methoxy-1,6-dimethyl-4-[4-(5-methyl-1,3-benzoxazol-2-yl)piperidin-1-yl]-2-oxo-1,2-dihydroquinoline-3-carbonitrile] was run?
Its IC50 is 4.6 nM.

With Cn1c(=O)c(C(N)=O)c(N2CCC(c3nc4ccccc4o3)CC2)c2ccc(Cl)cc21 [Example 300, 4-[4-(1,3-benzoxazol-2-yl)piperidin-1-yl]-7-chloro-1-methyl-2-oxo-1,2-dihydroquinoline-3-carboxamide] as the molecule, how does the IC50 read?
Its IC50 is 1.2 nM.

Which IC50 does the source give for Cc1ccc2c(c1)c(N1CCC(c3nc4ccccc4s3)CC1)c(C#N)c(=O)n2C [Example 174, 4-[4-(1,3-benzothiazol-2-yl)piperidin-1-yl]-1,6-dimethyl-2-oxo-1,2-dihydroquinoline-3-carbonitrile] here?
The IC50 was 1.7 nM.

With Cn1c(=O)c(C#N)c(N2CCC(c3nc(-c4ccccc4)no3)CC2)c2cc(Br)ccc21 [Example 440, 6-bromo-1-methyl-2-oxo-4-[4-(3-phenyl-1,2,4-oxadiazol-5-yl)piperidin-1-yl]-1,2-dihydroquinoline-3-carbonitrile] as the molecule, how does the IC50 read?
Its IC50 is 8.9 nM.

Which IC50 does the source give for Cc1ccc2oc(C3CCN(c4c(C(N)=O)c(=O)n(C)c5cc(C)ccc45)CC3)nc2c1 [Example 313, 1,7-dimethyl-4-[4-(5-methyl-1,3-benzoxazol-2-yl)piperidin-1-yl]-2-oxo-1,2-dihydroquinoline-3-carboxamide] here?
Its IC50 is 1.5 nM.

Which IC50 does the source give for Cn1c(=O)c(C#N)c(N2CCC(c3nc4ccccc4s3)CC2)c2cc(Br)ccc21 [Example 169, 4-[4-(1,3-benzothiazol-2-yl)piperidin-1-yl]-6-bromo-1-methyl-2-oxo-1,2-dihydroquinoline-3-carbonitrile] here?
The IC50 was 0.6 nM.

For Cn1c(=O)c(C#N)c(N2CCC(C)(c3ccccc3)CC2)c2ccccc21 [Example 58, 1-methyl-4-(4-methyl-4-phenylpipehdin-1-yl)-2-oxo-1,2-dihydroquinoline-3-carbonitrile], which IC50 is on record?
Its IC50 is 2.6 nM.

How did the IC50 turn out when Cn1c(=O)c(C#N)c(N2CCC(C)(c3nc4ccccc4o3)CC2)c2ccccc21 [Example 1, 4-[4-(1,3-benzoxazol-2-yl)-4-methylpiperidin-1-yl]-1-methyl-2-oxo-1,2-dihydroquinoline-3-carbonitrile] was run?
Its IC50 is 1.4 nM.

From US11998539B2, “Substituted aminoquinolones as DGKalpha inhibitors for immune activation” (Bayer Aktiengesellschaft, priority 2019, dated 2024)
